Values quoted from earlier work, collected in US20050123612A1, “Ribavirin granulate for producing coated tablets” (priority 2001, published 2005).

Test system: embryo development
Details: animal experiments; in particular first six weeks of embryo development

Q: Which teratogenicity does the source give for `NC(=O)c1ncn([C@@H]2O[C@H](CO)[C@@H](O)[C@H]2O)n1` [ribavirin, 1-β-D-Ribafuranosyl-1,2,4-triazole-3-carboxamide] here?
A: teratogenic
